Data set [1] in a line: in vitro. The settings on record: human, liver S9 fraction.
A short description of data set [2]: in vitro. The conditions noted are these: mouse, liver S9 fraction.

Molecules are shown by their SMILES.

The results in this text go back to ChEMBL document CHEMBL5634146, “Discovery of benzimidazole-indazole derivatives as potent FLT3-tyrosine kinase domain mutant kinase inhibitors for acute myeloid leukemia” (Eur J Med Chem, 2023).

For the molecule `N[C@H]1CC[C@H](NC(=O)c2ccc3[nH]nc(-c4nc5ccc(N6CCOCC6)cc5[nH]4)c3c2)C1`, the amount remaining at 0.5 h in the data set “in vitro [1]” and in the data set “in vitro [2]” was 61% each time.

For orientation: share remaining means what is left of the initial amount, in per cent. The low end stands for a greater loss, the high end for greater stability.
